Test results as given in article PMC5487681, “Identification of Antifungal H^+-ATPase Inhibitors with Effect on Plasma Membrane Potential” (Antimicrobial Agents and Chemotherapy, 2017).
Values after ≈ are worked out from the molar mass of the structure shown. Where two headings read alike, the source gives them in different places.

Legend:
[1] = system: Candida parapsilosis ATCC 22019; assay: microbe, parasite or virus in culture; conditions: Lodderomyces parapsilosis
Protocol: (§1) The following fungal isolates were used: Saccharomyces cerevisiae ATCC 9763, Candida albicans SC5314, Candida parapsilosis ATCC 22019, Candida tropicalis Ct016, Candida glabrata ATCC 90030, Aspergillus fumigatus ATCC 13073, and Aspergillus flavus ATCC MYA-1005. Frozen stocks of yeast isolates in glycerol (final concentration, 20%) were prepared by growing the cells to log phase in YPD medium at 30°C and 150 rpm. Frozen stocks of mold spores were prepared by harvesting spores from 7-day-old potato glucose agar plates in phosphate-buffered saline, 0.1% Tween 80 and aliquoting these spores in the presence of glycerol (final concentration, 20%). The cells were stored at −80°C. The cells or spores were thawed and diluted to a final concentration of 0.5 × 10^5 to 2.5 × 10^5 CFU/ml in sterile Milli-Q H2O. […] The plate was incubated for 20 to 24 h at 34°C (72 h for molds), and the OD490 was measured on a Victor X5 (PerkinElmer) plate reader. Mold growth assay plates were also visually inspected. The MIC was defined as the lowest concentration inhibiting the visual growth of the microorganism.

[2] = system: Candida glabrata ATCC 90030; assay: microbe, parasite or virus in culture; conditions: Nakaseomyces glabratus
Protocol: as §1

Candida tropicalis Ct016 = assay: microbe, parasite or virus in culture; conditions: Candida tropicalis
Protocol: as §1

S. cerevisiae Pma1 = S. cerevisiae Pma1 (Saccharomyces cerevisiae, UniProt P05030); assay: ATP hydrolysis assay, S. cerevisiae plasma membranes containing Pma1; format: biochemical; parameters: containing the full-length cDNA of the S. cerevisiae plasma membrane H^+-ATPase isoform PMA1; made in house; host or cells: S. cerevisiae RS72 (PMA1 cDNA under PMA1 promoter); also wild-type S. cerevisiae ATCC 9763
Sequence of S. cerevisiae Pma1 (P05030 whole entry, canonical isoform): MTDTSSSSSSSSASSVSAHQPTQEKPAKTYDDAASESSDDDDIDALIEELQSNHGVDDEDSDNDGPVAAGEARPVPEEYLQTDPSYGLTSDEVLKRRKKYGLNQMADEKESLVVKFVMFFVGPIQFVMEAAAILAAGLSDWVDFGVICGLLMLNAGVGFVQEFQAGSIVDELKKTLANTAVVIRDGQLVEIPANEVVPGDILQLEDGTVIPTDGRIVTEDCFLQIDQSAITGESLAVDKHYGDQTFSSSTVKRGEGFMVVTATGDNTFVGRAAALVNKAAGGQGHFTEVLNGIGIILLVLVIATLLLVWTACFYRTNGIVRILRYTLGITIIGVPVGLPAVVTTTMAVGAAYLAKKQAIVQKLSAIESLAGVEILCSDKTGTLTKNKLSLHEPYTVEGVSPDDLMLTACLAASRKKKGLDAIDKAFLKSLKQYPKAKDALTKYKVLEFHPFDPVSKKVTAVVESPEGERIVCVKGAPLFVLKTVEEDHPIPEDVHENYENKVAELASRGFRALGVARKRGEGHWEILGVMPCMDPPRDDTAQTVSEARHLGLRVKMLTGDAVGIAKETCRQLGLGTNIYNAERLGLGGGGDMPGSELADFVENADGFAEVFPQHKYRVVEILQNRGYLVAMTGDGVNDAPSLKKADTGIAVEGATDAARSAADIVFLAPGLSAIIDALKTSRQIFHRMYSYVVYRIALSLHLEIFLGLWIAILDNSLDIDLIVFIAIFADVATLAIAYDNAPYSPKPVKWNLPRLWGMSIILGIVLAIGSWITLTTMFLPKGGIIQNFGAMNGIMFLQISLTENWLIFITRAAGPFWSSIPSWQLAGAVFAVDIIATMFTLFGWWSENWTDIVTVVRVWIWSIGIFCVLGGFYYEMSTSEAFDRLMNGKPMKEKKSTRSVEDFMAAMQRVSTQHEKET
Protocol: Plasma membranes containing Pma1 were isolated from S. cerevisiae RS72 cells containing the full-length cDNA of the S. cerevisiae plasma membrane H^+-ATPase isoform PMA1 under the control of the PMA1 promoter, as described in reference.
A 100-ml overnight culture in YPD medium [10 g/liter yeast extract (BD, Sparks, MD), 20 g/liter Bacto peptone (BD), 20 g/liter D-(+)-glucose] was transferred to 1 liter YPD medium and grown at room temperature and 150 rpm for 18 h for wild-type S. cerevisiae (ATCC 9763) and 7 h for C. albicans. The cells were harvested and washed in Milli-Q H2O by centrifugation at 3,360 × g. The cells were glucose activated by the addition of 10% D-(+)-glucose for 10 min while shaking. The cells were then centrifuged at 3,360 × g for 3 min and frozen. Cells (60 to 80 g, wet weight) were then disrupted by bead beating (BioSpec, Bartlesville, OK) and processed as described in reference to prepare the plasma membranes. […] All batches were validated by ATPase hydrolysis activity, pH optimum, and orthovanadate sensitivity.
The protein activity levels were determined by measuring the amount of free phosphate produced from the ATP hydrolysis reaction. The assay was performed as described in reference. Each well contained ATPase enzyme, 2 μl of inhibitor (usually in the range of 333 to 0.01 μM) dissolved in dimethyl sulfoxide (DMSO) (Duchefa Biochemie, Haarlem, The Netherlands), and an assay buffer dependent on the enzyme for a final volume of 60 μl. Possible compound precipitation in the assay buffer was monitored using a Nephelostar plate reader measuring turbidity, and the information was taken into account in the IC50 determination. Pma1 assay buffer consisted of 20 mM 3-(N-morpholino)propanesulfonic acid (MOPS)–NaOH, pH 6.5 or 7.0, 8 mM MgSO4, 50 mM KNO3 (a vacuolar ATPase inhibitor), 25 mM sodium azide (a mitochondrial ATPase inhibitor), and 250 μM sodium molybdate (an acid phosphatase inhibitor). SERCA buffer consisted of 9 mM MOPS-NaOH, pH 7, 2.7 mM MgCl2, 90 μM CaCl2, and 72 mM KCl. Na^+,K^+-ATPase buffer consisted of 30 mM MOPS-NaOH, pH 7, 40 mM NaCl, 4 mM MgCl2, and 20 mM KCl. The concentration of protein was adjusted to obtain a signal of the optical density at 860 nm (OD860) of between 0.5 and 1.0 in the untreated samples (for all Pma1 batches, ∼1 to 2 μg/well; for SERCA and Na^+,K^+-ATPase, ∼0.1 to 0.2 μg/well). […]

Na^+,K^+-ATPase = target: T1, Na^+,K^+-ATPase (Sus scrofa, UniProt P05024); assay: ATP hydrolysis assay, Na+,K+-ATPase; format: biochemical, porcine
T1 construct: from tissue; host or cells: porcine kidney (gift of Natalya Fedosova, Aarhus University)
Protocol: Rabbit sarcoplasmic reticulum membranes containing sarcoplasmic endoplasmic reticulum Ca^2+-ATPase (SERCA) were kindly provided by Claus E. Olesen and Jesper V. Møller, Aarhus University, and prepared as described in reference. Porcine kidney Na^+,K^+-ATPase was kindly provided by Natalya Fedosova, Aarhus University, and prepared as described in reference.
The protein activity levels were determined by measuring the amount of free phosphate produced from the ATP hydrolysis reaction. The assay was performed as described in reference. Each well contained ATPase enzyme, 2 μl of inhibitor (usually in the range of 333 to 0.01 μM) dissolved in dimethyl sulfoxide (DMSO) (Duchefa Biochemie, Haarlem, The Netherlands), and an assay buffer dependent on the enzyme for a final volume of 60 μl. Possible compound precipitation in the assay buffer was monitored using a Nephelostar plate reader measuring turbidity, and the information was taken into account in the IC50 determination. Pma1 assay buffer consisted of 20 mM 3-(N-morpholino)propanesulfonic acid (MOPS)–NaOH, pH 6.5 or 7.0, 8 mM MgSO4, 50 mM KNO3 (a vacuolar ATPase inhibitor), 25 mM sodium azide (a mitochondrial ATPase inhibitor), and 250 μM sodium molybdate (an acid phosphatase inhibitor). SERCA buffer consisted of 9 mM MOPS-NaOH, pH 7, 2.7 mM MgCl2, 90 μM CaCl2, and 72 mM KCl. Na^+,K^+-ATPase buffer consisted of 30 mM MOPS-NaOH, pH 7, 40 mM NaCl, 4 mM MgCl2, and 20 mM KCl. The concentration of protein was adjusted to obtain a signal of the optical density at 860 nm (OD860) of between 0.5 and 1.0 in the untreated samples (for all Pma1 batches, ∼1 to 2 μg/well; for SERCA and Na^+,K^+-ATPase, ∼0.1 to 0.2 μg/well).

[3] = ATCC22019, pH 7, read-out: MIC C. parapsilosis
[4] = ATCC90030, pH 7, read-out: MIC C. glabrata
[5] = CT016, pH 7, read-out: MIC C. tropicalis
[6] = Table 1, ATP hydrolysis at pH 7, 2 to 3 experiments, read-out: IC50 Pma1
[7] = Table 1, ATP hydrolysis at pH 7, read-out: IC50 Na^+,K^+-ATPase
[8] = ATCC22019, read-out: MIC for growth inhibition, C. parapsilosis
[9] = ATCC90030, read-out: MIC for growth inhibition, C. glabrata
[10] = CT016, read-out: MIC for growth inhibition, C. tropicalis
[11] = Table 2, pH 7, n = 2, read-out: IC50 for ATP hydrolysis, S. cerevisiae Pma1
[12] = Table 2, pH 7, n = 2, porcine kidney, read-out: IC50 for ATP hydrolysis, Na^+,K^+-ATPase

| SMILES | MIC [1, 3] | MIC [2, 4] | MIC (Candida tropicalis Ct016; [5]) | IC50 (S. cerevisiae Pma1; [6]) | IC50 (Na^+,K^+-ATPase; [7]) | MIC [1, 8] | MIC [2, 9] | MIC (Candida tropicalis Ct016; [10]) | IC50 (S. cerevisiae Pma1; [11]) | Selectivity for Pma1 over SERCA (S. cerevisiae Pma1; from IC50 of Table 2) | Selectivity toward Pma1 than toward SERCA or Na^+,K^+-ATPase (S. cerevisiae Pma1; from IC50 of Table 2) | IC50 (Na^+,K^+-ATPase; [12]) | IC50 (S. cerevisiae Pma1; ATP hydrolysis, S. cerevisiae Pma1, read-out: IC50 for Pma1) | Selectivity for Pma1 over Na^+,K^+-ATPase (S. cerevisiae Pma1; from IC50 of Table 2) |
| --- | --- | --- | --- | --- | --- | --- | --- | --- | --- | --- | --- | --- | --- | --- |
| CCCCOc1ccc(C2C(C#N)=C(N)Oc3cc(O)ccc32)cc1 (stereo not shown) [Compound 11] | > 150 µM | > 150 µM | > 150 µM | 12.8 ± 5 µM | 30.3 ± 2.4 µM | – | – | – | – | – | – | – | – | – |
| COc1ccc(Cn2c(SCc3cc(C)ccc3C)nc3cc(OC)c(OC)cc3c2=N)cc1 [Compound 12] | > 150 µM | > 150 µM | > 150 µM | 15.5 ± 8.1 µM | 58.7 ± 40.2 µM | – | – | – | – | – | – | – | – | – |
| CCCCc1nc2sc3c(NCCCN(C)C)ncnc3c2c2c1CCCC2 [Compound 14] | 24 µM (≈ 9.54 µg/mL) | 41 µM (≈ 16.3 µg/mL) | 24 µM (≈ 9.54 µg/mL) | 13.7 ± 2 µM | 18.4 ± 2.1 µM | 24 µM (≈ 9.54 µg/mL) | 41 µM (≈ 16.3 µg/mL) | 24 µM (≈ 9.54 µg/mL) | 13.7 ± 2 µM | 3 fold | – | – | – | – |
| CCCCc1nc2sc3c(NCCCN(C)C)nc(SC)nc3c2c2c1CCC2 [Compound 15] | – | – | – | – | – | 15 µM (≈ 6.44 µg/mL) | 15 µM (≈ 6.44 µg/mL) | 47 µM (≈ 20.2 µg/mL) | 5.9 ± 0.2 µM | – | no selectivity | 4.1 ± 0.6 µM | – | – |
| CN(C)CCCNc1ncnc2c1sc1nc(N3CCCCC3)c3c(c12)CCCC3 [Compound 16] | – | – | – | – | – | 15 µM (≈ 6.37 µg/mL) | 11 µM (≈ 4.67 µg/mL) | 28 µM (≈ 11.9 µg/mL) | 7.8 ± 0.6 µM | – | no selectivity | 9.1 ± 1 µM | – | – |
| CCc1nc2sc3c(NCCCN(C)C)ncnc3c2c2c1CCCC2 [Compound 17] | – | – | – | – | – | 150 µM (≈ 55.4 µg/mL) | 150 µM (≈ 55.4 µg/mL) | 150 µM (≈ 55.4 µg/mL) | 107 ± 18.2 µM | – | – | > 333 µM | 107 µM | – |
| CN(C)CCCNc1ncnc2c1sc1nc(-c3ccccc3)c3c(c12)CCC3 [Compound 18] | – | – | – | – | – | 24 µM (≈ 9.69 µg/mL) | 41 µM (≈ 16.5 µg/mL) | 58 µM (≈ 23.4 µg/mL) | 18.5 ± 4.3 µM | 3 fold | – | 85.7 ± 26.6 µM | – | 4 fold |
| CCN(CC)CCCNc1nc(SC)nc2c1sc1nc(-c3ccccc3)c3c(c12)CCC3 [Compound 19] | – | – | – | – | – | 3.7 µM (≈ 1.77 µg/mL) | 3.7 µM (≈ 1.77 µg/mL) | 3.7 µM (≈ 1.77 µg/mL) | 7.3 ± 1 µM | – | no selectivity | 5.5 ± 1.8 µM | – | – |
| O=c1c2ccccc2[se]n1-c1ccccc1 [Ebselen, reference compound] | – | – | – | – | – | 24 µM (≈ 6.58 µg/mL) | 7.5 µM (≈ 2.06 µg/mL) | 11 µM (≈ 3.02 µg/mL) | – | – | – | 0.16 ± 0.01 µM | – | – |
